# Test system: 3D7 P. falciparum strain
# Assay: P. falciparum 3D7 parasite proliferation assay (SYBR Green)
# Assay type: cell-based
# Conditions: Plasmodium falciparum, Erythrocyte; 3D7 P. falciparum infected human erythrocytes, 72 hours, SYBR Green fluorescence; read-out: Pf3D7 Activity
# Method: The following assay illustrates the invention without in any way limiting the scope of the invention. This parasite proliferation assay measures the increase in parasite DNA content using a DNA intercalating dye, SYBR Green®. 3D7 P. falciparum strain is grown in complete culturing media until parasitemia reaches 3% to 8% with O+ human erythrocytes. 20 μl of screening media is dispensed into 384 well assay plates. 50 nl of compounds of the invention (in DMSO), including antimalarial controls (mefloquine, pyrimethamine and artemisinin), are then transferred into the assay plates, as well as DMSO alone to serve as a negative control for inhibition. Then 30 μl of a suspension of a 3D7 P. falciparum infected erythrocytes in screening media is dispensed into the assay plates such that the final hematocrit is 2.5% with a final parasitemia of 0.3%. The plates are placed in a 37° C. incubator for 72 hours in a low oxygen environment containing 93% N2, 4% CO2, and 3% O2 gas mixture. 10 μl of lysis buffer (saponin, triton-X, EDTA) containing a 10× solution of SYBR Green […] in RPMI media is dispensed into the plates. The plates are lidded and kept at room temperature overnight for the lysis of the infected red blood cells. The fluorescence intensity is measured (excitation […], emission 530 nm) using the Envision™ system (Perkin Elmer). The percentage inhibition of 50%, EC50, is calculated for each compound.
row,SMILES,EC50
1,"Cc1c(-c2cncc(C(=O)NCC(C)(C)N)n2)[nH]c2c1C(=O)CC(C)(C)C2 [Example 56, N-(2-amino-2-methylpropyl)-6-(3,6,6-trimethyl-4-oxo-4,5,6,7-tetrahydro-1H-indol-2-yl)pyrazine-2-carboxamide]",> 100 nM
2,"Cc1c(-c2cncc(C(=O)NC(C)(C)CN)n2)[nH]c2ccccc12 [Example 88, N-(1-amino-2-methylpropan-2-yl)-6-(3-methyl-1H-indol-2-yl)pyrazine-2-carboxamide]",10 to 100 nM
3,"CC(C)(N)CNC(=O)c1cncc(-c2cc3cc(F)c(F)cc3[nH]2)n1 [Example 20, N-(2-amino-2-methylpropyl)-6-(5,6-difluoro-1H-indol-2-yl)pyrazine-2-carboxamide]",10 to 100 nM
4,"CN(C)C(=O)c1cc2[nH]c(-c3cncc(C(=O)NCC(C)(C)N)n3)cc2s1 [Example 109, 5-(6-((2-amino-2-methylpropyl)carbamoyl)pyrazin-2-yl)-N,N-dimethyl-4H-thieno[3,2-b]pyrrole-2-carboxamide]",> 100 nM
5,"CC(C)(N)CNC(=O)c1cncc(-c2cc3cnc(Cl)cc3[nH]2)n1 [Example 40, N-(2-amino-2-methylpropyl)-6-(6-chloro-1H-pyrrolo[3,2-c]pyridin-2-yl)pyrazine-2-carboxamide]",> 100 nM
6,"COC(=O)c1ccc2[nH]c(-c3cncc(C(=O)NCC(C)(C)N)n3)c(C)c2c1 [Example 48, Methyl 2-(6-((2-amino-2-methylpropyl)carbamoyl)pyrazin-2-yl)-3-methyl-1H-indole-5-carboxylate]",10 to 100 nM
7,"CC(C)(N)CNC(=O)c1cncc(-c2cc3cc(Cl)c(F)cc3[nH]2)n1 [Example 17, N-(2-amino-2-methylpropyl)-6-(5-chloro-6-fluoro-1H-indol-2-yl)pyrazine-2-carboxamide]",10 to 100 nM
8,"Cc1c(-c2cncc(C(=O)NCC(C)(C)N)n2)[nH]c2ccc(OC(F)F)cc12 [Example 70, N-(2-amino-2-methylpropyl)-6-(5-(difluoromethoxy)-3-methyl-1H-indol-2-yl)pyrazine-2-carboxamide]",10 to 100 nM
9,"Cc1c(-c2cncc(C(=O)NCC(C)(C)N)n2)[nH]c2ccc(Cl)cc12 [Example 12, N-(2-amino-2-methylpropyl)-6-(5-chloro-3-methyl-1H-indol-2-yl)pyrazine-2-carboxamide]",10 to 100 nM
10,"Cc1c(-c2cncc(C(=O)NCC3(N)CC(F)(F)C3)n2)[nH]c2cc(Cl)c(F)cc12 [Example 82, N-((1-amino-3,3-difluorocyclobutyl)methyl)-6-(6-chloro-5-fluoro-3-methyl-1H-indol-2-yl)pyrazine-2-carboxamide]",10 to 100 nM
11,"CC(C)(N)CNC(=O)c1cncc(-c2cc3cc(C(F)(F)F)ccc3[nH]2)n1 [Example 18, N-(2-amino-2-methylpropyl)-6-(5-(trifluoromethyl)-1H-indol-2-yl)pyrazine-2-carboxamide]",10 to 100 nM
12,"Cc1ccc2c(C)c(-c3cncc(C(=O)NCC(C)(C)N)n3)[nH]c2c1 [Example 45, N-(2-Amino-2-methylpropyl)-6-(3,6-dimethyl-1H-indol-2-yl)pyrazine-2-carboxamide]",< 10 nM
13,"Cc1c(-c2cncc(C(=O)NC34CC(N)(C3)C4)n2)[nH]c2ccccc12 [Example 87, N-(3-aminobicyclo[1.1.1]pentan-1-yl)-6-(3-methyl-1H-indol-2-yl)pyrazine-2-carboxamide]",10 to 100 nM
14,"CC(C)(N)CNC(=O)c1cncc(-c2cc3cccc(F)c3[nH]2)n1 [Example 25, N-(2-amino-2-methylpropyl)-6-(7-fluoro-1H-indol-2-yl)pyrazine-2-carboxamide]",10 to 100 nM
15,"Cc1c(-c2cncc(C(=O)NCC(C)(C)N)n2)[nH]c2cc(S(F)(F)(F)(F)F)ccc12 [Example 9, N-(2-amino-2-methylpropyl)-6-(3-methyl-6-(pentafluoro-[…]^6-sulfaneyl)-1H-indol-2-yl)pyrazine-2-carboxamide]",< 10 nM
16,"CC(C)(N)CNC(=O)c1cncc(-c2cc3cccc(Cl)c3[nH]2)n1 [Example 28, N-(2-amino-2-methylpropyl)-6-(7-chloro-1H-indol-2-yl)pyrazine-2-carboxamide]",10 to 100 nM

row,SMILES,EC50
1,"Cc1c(-c2cncc(C(=O)NC3CCC(N)C3)n2)[nH]c2ccccc12 (centres unmarked) [Example 92, N-(3-aminocyclopentyl)-6-(3-methyl-1H-indol-2-yl)pyrazine-2-carboxamide]",> 100 nM
2,"Cc1c(-c2cncc(C(=O)NCCCN)n2)[nH]c2ccccc12 [Example 90, N-(3-aminopropyl)-6-(3-methyl-1H-indol-2-yl)pyrazine-2-carboxamide]",> 100 nM
3,"Cc1c(-c2cncc(C(=O)N[C@@H]3CCCC[C@@H]3N)n2)[nH]c2ccccc12 (racemic) [Example 98, (rac)-N-((1r,2s)-2-aminocyclohexyl)-6-(3-methyl-1H-indol-2-yl)pyrazine-2-carboxamide]",> 100 nM
4,"CC(C)(N)CNC(=O)c1cncc(-c2cc3cc(Cl)cc(F)c3[nH]2)n1 [Example 13, N-(2-amino-2-methylpropyl)-6-(5-chloro-7-fluoro-1H-indol-2-yl)pyrazine-2-carboxamide]",10 to 100 nM
5,"N[C@H]1CC[C@H](NC(=O)c2cncc(-c3cc4cc(OC(F)(F)F)ccc4[nH]3)n2)CC1 [Example 67, N-((1r,4r)-4-aminocyclohexyl)-6-(5-(trifluoromethoxy)-1H-indol-2-yl)pyrazine-2-carboxamide]",> 100 nM
6,"CC(C)(N)CNC(=O)c1cncc(-c2cc3cc(OCc4ccccc4)ccc3[nH]2)n1 [Example 22, N-(2-amino-2-methylpropyl)-6-(5-(benzyloxy)-1H-indol-2-yl)pyrazine-2-carboxamide]",10 to 100 nM
7,"Cc1c(-c2cncc(C(=O)NCC(C)(C)N)n2)[nH]c2cc(OC(F)(F)F)ccc12 [Example 8, N-(2-amino-2-methylpropyl)-6-(3-methyl-6-(trifluoromethoxy)-1H-indol-2-yl)pyrazine-2-carboxamide]",< 10 nM
8,"Cc1c(-c2cncc(C(=O)NCC3(N)CC3)n2)[nH]c2cc(Cl)c(F)cc12 [Example 81, N-((1-aminocyclopropyl)methyl)-6-(6-chloro-5-fluoro-3-methyl-1H-indol-2-yl)pyrazine-2-carboxamide]",10 to 100 nM
9,"Cc1c(-c2cncc(C(=O)NCC(C)(C)N)n2)[nH]c2c(F)c(Cl)ccc12 [Example 4, N-(2-amino-2-methylpropyl)-6-(6-chloro-7-fluoro-3-methyl-1H-indol-2-yl)pyrazine-2-carboxamide]",< 10 nM
10,"Cc1c(-c2cncc(C(=O)NCC(C)(C)N)n2)[nH]c2ccc(C(=O)NCC(C)(C)N)cc12 [Example 107, N-(2-amino-2-methylpropyl)-2-(6-((2-amino-2-methylpropyl)carbamoyl)pyrazin-2-yl)-3-methyl-1H-indole-5-carboxamide]",> 100 nM
11,"Cc1c(-c2cncc(C(=O)NCC(C)(C)N3CCOCC3)n2)[nH]c2ccccc12 [Example 96, 6-(3-Methyl-1H-indol-2-yl)-N-(2-methyl-2-morpholinopropyl)pyrazine-2-carboxamide]",> 100 nM
12,"CC(C)(N)CNC(=O)c1cncc(-c2cc3ccc(F)cc3[nH]2)n1 [Example 21, N-(2-amino-2-methylpropyl)-6-(6-fluoro-1H-indol-2-yl)pyrazine-2-carboxamide]",10 to 100 nM
13,"Cc1c(-c2cncc(C(=O)NCC(C)(C)N)n2)[nH]c2ccccc12 [Example 83, N-(2-amino-2-methylpropyl)-6-(3-methyl-1H-indol-2-yl)pyrazine-2-carboxamide]",10 to 100 nM
14,"CC(C)(N)CNC(=O)c1cncc(-c2cc3c(Cl)nccc3[nH]2)n1 [Example 41, N-(2-amino-2-methylpropyl)-6-(4-chloro-1H-pyrrolo[3,2-c]pyridin-2-yl)pyrazine-2-carboxamide]",> 100 nM
15,"CC(C)(N)CNC(=O)c1cncc(-c2cc3cc(F)ccc3[nH]2)n1 [Example 27, N-(2-amino-2-methylpropyl)-6-(5-fluoro-1H-indol-2-yl)pyrazine-2-carboxamide]",10 to 100 nM
16,"Cc1c(-c2cncc(C(=O)NCC(C)(C)C)n2)[nH]c2ccccc12 [Example 68, 6-(3-methyl-1H-indol-2-yl)-N-neopentylpyrazine-2-carboxamide]",> 100 nM

# From US20250197376A1, “PYRAZINE AMIDE DERIVATIVES” (Novartis AG, priority 2022, published 2025)
